# Tested on: U937 cells
# Experiment: Number of SLPI binding sites on PMA-induced U937 cells (Scatchard plot)
# Assay type: cell-based, human
# Settings: PMA 25 ng per ml, 48 hours, versus non-induced cells
# Method: U937 cells were induced by 13-phorbol-12-myristate acetate ("PMA").
# U937 cells at an initial concentration of 10,000 cells per ml were placed in two flasks. PMA was added to one flask at a final concentration of 25 ng per ml. After 48 hours, cells were harvested from both flasks. Using the method of Dripps et al., J. Biol. Chem., Vol. 266, No. 16, pp. 10331-10336 (1991), and labelling with I-125, having a specific activity of 91.5 Curries per millimole, the number of SLPI binding sites was determined. […] In this experiment, the Kd in non-induced cells was 1.1 lnM; The Kd in PMA-induced cells was 1.0 nM. The reduction in the number of SLPI binding sites in the PMA-induced cells is consistent with SLPI binding to elastase and cathepsin G on the cell surface.
smiles,measurement,value
"CCCCCCCCCCCCCC(=O)O[C@@H]1[C@@H](C)[C@@]2(O)[C@@H](C=C(CO)C[C@]3(O)C(=O)C(C)=C[C@@H]23)[C@@H]2C(C)(C)[C@]12OC(C)=O [PMA, 13-phorbol-12-myristate acetate]",Reduction in the number of SLPI binding sites,70%

# — US6017880A, “Inhibition of retrovirus infection” (Amgen Inc., priority 1995, dated 2000)
